Laboratory results taken from patent US20230099567A1, “COMPOSITION FOR TREATMENT, PREVENTION, OR AMELIORATION OF LYMPHEDEMA” (RAPPELER CO., LTD., priority 2020, published 2023).
Where two headings read alike, the source gives them in different places.

Experiments:
[1] = Pharmacokinetic analysis in mice after I.V. and oral administration; assay type: in vivo, mouse; conditions: for BA (bioavailability): (AUCpo/AUCiv)×100; for AUC(0-inf) / Cmax: mouse, plasma; for Cmax: read-out: Cmax (maximum plasma concentration)
Description: Compounds were administered to 5-week-old male CD-1 mice through 1 mg/kg tail vein administration (administration volume of 5 mL/kg), 20 mg/kg oral administration, and 100 mg/kg oral administration, respectively. Three mice were used for each independent experiment. Blood samples were taken in an amount of 20 μL to 30 μL via the saphenous vein at 5, 15, 30, 60, 120, 180, 360, and 1440 minutes.
In addition, pharmacokinetic parameters were calculated from non-compartmental analysis using Win Non-lin.
In Table 3, T1/2 denotes the terminal half-life, Cmax denotes the maximum plasma concentration, AUC-O denotes the area under the plasma concentration-time curve from time zero to infinity, and indicates exposure concentration of whole blood, and BA represents bioavailability expressed as (AUCpo/AUCiv)×100. […] Cmax and AUC∞ are mean±SD values obtained from three male ICR mice. Regarding blood exposure during systemic circulation of the compound, the compound was orally administered at an amount of 100 mg/kg, and then, AUC (area under the curve) was measured, and the obtained measurements were compared.

[2] = Physicochemical properties (pKa, logP, solubility)
Source text: Compound 1 is butein and the therapeutic effect on lymphedema thereof is disclosed in Korean Patent Publication No. 10-1533197 (published on Jul. 2, 2015).

[3] = tested on: lymphedema induced in mice; assay: Prophylactic effect on lymphedema formation, surgically induced murine lymphedema model (volume); assay type: in vivo, mouse; conditions: 7th day after surgery, oral administration 7 days before surgery, then once every two days, vs control group
Description: All animal tests in the following examples were performed after obtaining approvals by the Institutional Animal Care and Use Committee (IACUC) of Sungkyunkwan University School of Medicine (Approval No.: […]-20150037). All methods were performed according to the approved guidelines. […] Briefly, major lymphatic sites including inguinal lymph nodes, popliteal lymph nodes, deep inguinal lymph nodes and femoral lymphatic vessels were removed, and the lower right leg of the mouse was limitedly cauterized under anesthesia.
Compounds 1, 7m, and 14a were each orally administered to mice for 7 days before surgical induction of lymphedema in mice.
On the other hand, in the control group, the compound 1 treatment group, the compound 7m treatment group, and the compound 14a treatment group, lymphedema was induced through surgery. After surgery, the compounds were administered once every two days.
The volume of lymphedema was measured on the 7th day after surgery, and the size of the lymphedema was recorded using a caliper ruler by a person who was blinded to the treatment status of the mice.

PPARγ = assay: Immunofluorescence staining of PPARγ in epidermal layer of lymphedema tissue; assay type: in vivo; conditions: mouse
Source text: (§1) Tissue samples were collected on the 7th day after surgery to induce lymphedema at a location 15 mm-25 mm from the right leg of the mouse. The harvested tissue samples were fixed with 10% formalin solution, and the specimens were cut to a thickness of 5 μm. Sections were deparaffinized in 100% xylene, rehydrated with a series of 100% ethanol, 95% ethanol, 90% ethanol, 80% ethanol, and 70% ethanol, and washed with water. Sections were reacted with hematoxylin solution at room temperature. After washing in PBS, sections were stained with eosin at room temperature. Images were acquired by a Pannoramic viewer microscope (3[…] Ltd., Hungary). Prepared slides were incubated using anti-mouse PPARγ (Santa Cruz Biotechnology, USA) and Alexa Fluor 488 and DAPI (Life Technologies, USA). Samples were analyzed using a Nikon ECLIPSE 80i microscope (Nikon Instruments Inc., Japan).
In addition, peroxisome […] (PPARγ) is a major regulator of lipogenesis, and as shown in FIG. 4B showing the results of immunofluorescence staining, the distribution of PPARγ in the epidermal layer of lymphedema tissue after treatment with compound 1 and compound 14a was suppressed.

[4] = tested on: LPS-induced TNFα production in mouse peritoneal macrophages; assay: LPS-induced TNFα production in mouse peritoneal macrophages (ELISA); assay type: cell-based; conditions: for IC50 / TNFα production inhibitory ability compared with butein (FIG. 1): mouse peritoneal macrophages; for IC50: 100 ng/ml LPS 24 h, measured twice, mean ± standard deviation, read-out: IC50, dose-dependent inhibition of TNFα production in macrophages; for IC50 value compared with positive control butein: TNFα production in macrophages; for TNFα production inhibitory ability compared with butein (FIG. 1): compound 20 μM, LPS-induced
Description: To isolate peritoneal macrophages, male Balb/c mice were intraperitoneally injected with 2 ml of 3.5% sterile thioglycolate (B D, Sparks, Md., USA) 4 days before being sacrificed. Mice were sacrificed by cervical dislocation, and peritoneal secretory cells were aseptically isolated through peritoneal washing with cold DMEM (HyClone, Logan, Utah, USA) containing 10% FBS (fetal bovine serum; HyClone) and 1% penicillin-streptomycin. After centrifugation, cells were resuspended and counted using a TC20 Cell Counter (Bio-Rad Laboratories, Hercules, Calif., USA). Peritoneal secretory cells were left in a 24-well plate overnight at 37° C., and non-adherent cells were removed. The cells were then stimulated with 100 ng/ml lipopolysaccharide (LPS) for 24 hours. The supernatant was collected during cytokine analysis, and the level of TNFα in the supernatant was measured using BD OptEIA mouse ELISA sets (BD Biosciences, San Diego, Calif., USA) according to the manufacturer's protocol. […] IC50 (μM) values were measured twice, respectively, and expressed as mean±standard deviation.

TNFα = assay: mRNA expression of TNFα in lymphedema tissue; assay type: in vivo; conditions: 7th day after surgery, mouse
Source text: As a result, it was confirmed that the expression level of TNFα mRNA was decreased in the compound 1 treatment group and the compound 14a treatment group (with respect to the control group, *: P<0.05; with respect to compound 1, #: P<0.05).

lymphedema tissue = assay: Histological (H&E) analysis of lymphedema tissue of the right hind leg; assay type: in vivo; conditions: 7th day after surgery, right hind leg of mouse
Source text: as §1
In FIG. 3A, the scale bar of the upper panel is 500 μm, and the scale bar of the lower panel is 100 μm.
In FIG. 4A, the scale bar of the upper panel is 200 μm, and the scale bar of the lower panel is 100 μm.

[5] = tested on: PPARγ and a target protein Fabp4; assay: Expression of PPARγ and Fabp4 in lymphedema tissue (western blot, mRNA); assay type: in vivo; conditions: mouse
[6] = po, P.O, 20 mg/Kg, male CD-1 mice
[7] = water solubility, read-out: Solubility
[8] = Mus musculus, Peritoneal macrophage, 24 h

## COc1ccc(/C=C/C(=O)c2ccc(O)cc2O)cc1O [7b, (E)-1-(2,4-dihydroxyphenyl)-3-(3-hydroxy-4-methoxyphenyl)prop-2-en-1-one]
other
  melting point: 206.4 °C

## O=C(/C=C/c1ccc(F)c(O)c1)c1ccc(O)cc1O [7d, (E)-1-(2,4-dihydroxyphenyl)-3-(4-fluoro-3-hydroxyphenyl)prop-2-en-1-one]
other
  melting point: 252.4 °C

## O=C(/C=C/c1ccc(O)c(O)c1)c1ccc(O)cc1F [7g, (E)-3-(3,4-dihydroxyphenyl)-1-(2-fluoro-4-hydroxyphenyl)prop-2-en-1-one]
other
  melting point: 207.8 °C

## CC(C)Oc1cc(O)ccc1C(=O)/C=C/c1ccc(O)c(O)c1 [7j, (E)-3-(3,4-dihydroxyphenyl)-1-(4-hydroxy-2-isopropoxyphenyl)prop-2-en-1-one]
other
  melting point: 80.4 °C

## COc1ccc(C(=O)/C=C/c2ccc(O)c(O)c2)c(OC)c1 [7k, (E)-3-(3,4-dihydroxyphenyl)-1-(2,4-dimethoxyphenyl)prop-2-en-1-one]
other
  melting point: 162.9 °C

## O=C(/C=C/c1ccc(O)c(O)c1)c1ccc(O)cc1O [compound 1, (E)-1-(2,4-dihydroxyphenyl)-3-(3,4-dihydroxyphenyl)prop-2-en-1-one, reference compound]
[1]; I.V, 1 mg/Kg, male CD-1 mice
  Cmax (maximum plasma concentration): 41 ng/mL
  Tmax: 6 min
[1]; P.O, 20 mg/Kg, male CD-1 mice
  Tmax: 18 min
  BA (bioavailability): 15%
[1]; P.O, 100 mg/Kg, male CD-1 mice
  Tmax: 18 min
  BA (bioavailability): 37%
[1]; mice
  terminal half-life: too short terminal half-life
[1]; iv, I.V, 1 mg/Kg, male CD-1 mice
  AUC(0-inf): 6.7 ng·h/mL
[1]; [6]
  AUC(0-inf): 21 ng·h/mL
  Cmax: 43 ng/mL
[1]; po, P.O, 100 mg/Kg, male CD-1 mice
  Cmax: 601 ng/mL
[2]
  logP (partition coefficient): 0.42
[2]; [7]
  solubility: 21 µg/mL
[2]; water, read-out: water solubility
  solubility: 79 µM
[3]
  volume of lymphedema reduced by: 52%
PPARγ
  distribution of PPARγ in the epidermal layer of lymphedema tissue (FIG. 4B): suppressed
[4]; [8]
  IC50: 43 µM
[4]; Mus musculus, Peritoneal macrophage, treated in vitro at 20 μM, read-out: efficacy (inhibition)
  inhibition at 20 µM: 10%
[4]
  IC50: 43.3 ± 1.72 µM
TNFα
  expression level of TNFα mRNA in lymphedema tissue (FIG. 3B): decreased
Lymphedema tissue
  development of adipose tissue in the epidermal layer (H&E, FIG. 4A): inhibiting the development of adipose tissue in the epidermal layer
[5]; lymphedema tissue
  levels of PPARγ and Fabp4 mRNA (FIG. 4D): superior efficacy compared to the control group
[5]
  expression of PPARγ and Fabp4 in lymphedema tissue (western blot, FIG. 4C): reduced the expression of PPARγ

## Cc1cc(O)ccc1C(=O)/C=C/c1ccc(O)c(O)c1 [compound 7h, (E)-3-(3,4-dihydroxyphenyl)-1-(4-hydroxy-2-methylphenyl)prop-2-en-1-one]
other
  melting point: 208.2 °C
[4]; [8]
  IC50: 48.4 ± 2.35 µM

## Cc1ccc(C(=O)/C=C/c2ccc(O)c(O)c2)cc1 [compound 7l, (E)-3-(3,4-dihydroxyphenyl)-1-(p-tolyl)prop-2-en-1-one]
other
  melting point: 190.9 °C
[4]; [8]
  IC50: 18.6 ± 1.5 µM
[4]
  IC50 value compared with positive control butein: significantly superior IC50 values compared to butein

## O=C(/C=C/c1ccc(O)c(O)c1)c1ccc(Cl)cc1 [compound 7m, (E)-1-(4-chlorophenyl)-3-(3,4-dihydroxyphenyl)prop-2-en-1-one]
[2]
  logP (partition coefficient): 3.77
[2]; [7]
  solubility: 28 µg/mL
[3]
  volume of lymphedema reduced by: 53%
[4]; [8]
  IC50: 17.3 ± 2.11 µM
[4]
  IC50 value compared with positive control butein: significantly superior IC50 values compared to butein

## CC(=O)Oc1ccc(C(=O)/C=C/c2ccc(OC(C)=O)c(OC(C)=O)c2)c(OC(C)=O)c1 [compound 8a, (E)-4-(3-(2,4-diacetoxyphenyl)-3-oxoprop-1-en-1-yl)-1,2-phenylene diacetate]
other
  melting point: 131.3 °C
[4]; [8]
  IC50: 12.8 ± 1.24 µM
[4]
  IC50 value compared with positive control butein: significantly superior IC50 values compared to butein
  TNFα production inhibitory ability compared with butein (FIG. 1): significantly better TNFα production inhibitory ability than the positive control butein treatment group

## O=C(Oc1ccc(C(=O)/C=C/c2ccc(OC(=O)c3ccccc3)c(OC(=O)c3ccccc3)c2)c(OC(=O)c2ccccc2)c1)c1ccccc1 [compound 8b, (E)-4-(3-(2,4-bis(benzoyloxy)phenyl)-3-oxoprop-1-en-1-yl)-1,2-phenylene dibenzoate]
other
  melting point: 36.7 °C
[4]
  TNFα production inhibitory ability compared with butein (FIG. 1): significantly better TNFα production inhibitory ability than the positive control butein treatment group

## Cc1ccc(C(=O)Oc2cc(O)ccc2C(=O)/C=C/c2ccc(O)c(O)c2)cc1 [compound 14b, (E)-2-(3-(3,4-dihydroxyphenyl)acryloyl)-5-hydroxyphenyl 4-methylbenzoate]
other
  melting point: 185.7 °C
[4]; [8]
  IC50: 18.9 ± 1.15 µM

## COc1ccc(C(=O)Oc2cc(O)ccc2C(=O)/C=C/c2ccc(O)c(O)c2)cc1 [compound 14c, (E)-2-(3-(3,4-dihydroxyphenyl)acryloyl)-5-hydroxyphenyl 4-methoxybenzoate]
other
  melting point: 161.1 °C
[4]; [8]
  IC50: 20.8 ± 1.62 µM

## O=C(Oc1cc(O)ccc1C(=O)/C=C/c1ccc(O)c(O)c1)c1ccc(Cl)cc1 [compound 14d]
other
  melting point: 102.8 °C
